The subject of test [1] is S. pneumoniae. Description: microbe, parasite or virus in culture. It counts as cell-based.
In the next test the test system is N. meningitidis. The experiment in a line: MIC, CLSI broth microdilution, invasive isolates. The format is cell-based. To be noted: for % Susc. / % Res.: CLSI (M100-S19, 2009) criteria; for MIC / MIC50 / MIC90: Neisseria meningitidis. Here is the method: Example. […] Colonization of the nasopharynx (NP) by NM can lead to invasive meningococcal disease. Chemoprophylaxis is used to eradicate NP colonization and prevent transmission to nonimmune contacts. […] 62 isolates (91.9% blood culture) of NM were collected from 29 medical centers in North and South America and Europe (1997-2008). […] Serological identification was performed for serogroups (SGs) B, C, Y and W135.
A general note: Broth dilution looks for growth in wells or tubes with falling amounts of substance.

In the next test the test system is M. pneumoniae. The experiment in a line: microbe, parasite or virus in culture. The format is cell-based. To be noted: for MIC50 / MIC90: Mycoplasmoides pneumoniae.
The next test has as its system U. urealyticum. The experiment in a line: MIC testing in 10B broth (colour change). To be noted: for MIC Range / MIC50 / MIC90: U. urealyticum (10 isolates). It counts as cell-based.
Another test has as its system M. fermentans. The format is cell-based. To be noted: M. fermentans (15 isolates); for MIC50 / MIC90: Mycoplasmopsis fermentans.
Another test has as its system M. hominis. The format is cell-based.
Another test has as its system U. parvum. Description: MIC testing in 10B broth (colour change). The format is cell-based, Ureaplasma parvum. To be noted: for MIC Range / MIC50 / MIC90: U. parvum (10 isolates); for MIC50 / MIC90: Ureaplasma parvum; for MIC50: read-out: MIC50; for MIC90: read-out: MIC90.
For another test, the system named is M. genitalium. The format is cell-based. To be noted: M. genitalium (5 isolates).
Test [2] has as its system S. pneumoniae. The format is cell-based.
The subject of a further test is M. catarrhalis. Description: microbe, parasite or virus in culture. It counts as cell-based.
The next test deals with pneumococci. The experiment in a line: microbe, parasite or virus in culture. It counts as cell-based, S. pneumoniae.
The test system of the next test is group A streptococci. Description: microbe, parasite or virus in culture. The format is cell-based, S. pyogenes.
Another test relates to streptococci. The experiment in a line: organism not typed. The format is cell-based.
Where [3] appears, read: Streptococcus pneumoniae, pneumococci, L4 mutations (27).

≈ marks a conversion by molar mass, not a printed value. Where “and” joins values, the source holds several entries; their conditions need not be identical. Equal entries are not always repeated. Where two headings read alike, the source gives them in different places. Where only a bound is given, the exact number is not on record here.

`CO/N=C(\C(=O)N[C@@H]1C(=O)N2C(C(=O)O)=C(CSc3nc(=O)c(=O)[nH]n3C)CS[C@H]12)c1csc(N)n1` [CRO, ceftriaxone] showed a nonsusceptibility in the test with S. pneumoniae [1] of 33.3%. The “% Susc.” value with N. meningitidis was 100.0%. In the test on N. meningitidis (62 N. meningitidis isolates), this compound displayed an MIC of at most 0.015 µg/mL, an MIC50 of at most 0.015 µg/mL and an MIC90 of at most 0.015 µg/mL.

As to `C[C@H]1c2cccc(O)c2C(=O)C2=C(O)[C@]3(O)C(=O)C(C(N)=O)=C(O)[C@@H](N(C)C)[C@@H]3[C@@H](O)[C@@H]21` [Doxycycline, doxycycline], the “MIC Range” value with M. pneumoniae is 0.016 to 0.25 µg/mL; against U. urealyticum, 0.031 to 32 µg/mL; with M. fermentans, 0.016 to 0.5 µg/mL; against M. hominis (M. hominis (13 isolates)) it was “≦0.008-0.016 μg/mL”; in the test on U. parvum, 0.031 to 16 µg/mL; in the test on M. genitalium, “≦0.008-0.031 μg/mL”. The MIC50 against M. pneumoniae was 0.125 µg/mL (≈ 0.281 µM); in the test on U. urealyticum (Ureaplasma urealyticum) it was 1 µg/mL (≈ 2.25 µM); in the test with M. fermentans, 0.125 µg/mL (≈ 0.281 µM); in the test with M. hominis (Metamycoplasma hominis) it was 0.125 µg/mL (≈ 0.281 µM); in the test with U. parvum it was 8 µg/mL (≈ 18 µM). Further, the MIC90 against M. pneumoniae was 0.25 µg/mL (≈ 0.563 µM); in the test on U. urealyticum (Ureaplasma urealyticum), 16 µg/mL (≈ 36 µM); in the test with M. fermentans, 0.5 µg/mL (≈ 1.13 µM); in the test with M. hominis (Metamycoplasma hominis) it was 8 µg/mL (≈ 18 µM); with U. parvum, 16 µg/mL (≈ 36 µM). Moreover, the MIC was in the range of 4 to 32 µg/mL (≈ 9 to 72 µM) against U. urealyticum (Ureaplasma urealyticum, 4 doxycycline-resistant U. urealyticum); 8 to 16 µg/mL (≈ 18 to 36 µM) with M. hominis (Metamycoplasma hominis, 2 doxycycline-resistant M. hominis isolates); 4 to 16 µg/mL (≈ 9 to 36 µM) with U. parvum (7 doxycycline-resistant Ureaplasma parvum).

Take `CC[C@H]1OC(=O)[C@@](C)(F)C(=O)[C@H](C)[C@@H](OC2OC(C)CC(N(C)C)C2O)[C@@](C)(OC)C[C@@H](C)C(=O)[C@H](C)[C@H]2N(CCCCn3cc(-c4ccccn4)nn3)C(=O)O[C@]12C` (stereo partly drawn) [Entry 23a]: the MIC result against S. pneumoniae [2] is “≦0.125 μg/mL”.

With `CC[C@H]1OC(=O)[C@H](C)[C@@H](O[C@H]2C[C@@](C)(OC)[C@@H](O)[C@H](C)O2)[C@H](C)[C@@H](O[C@@H]2O[C@H](C)C[C@H](N(C)C)[C@H]2O)[C@](C)(O)C[C@@H](C)C(=O)[C@H](C)[C@@H](O)[C@]1(C)O` [Erythromycin, erythromycin A], the MIC90 against S. pneumoniae [1] (Streptococcus pneumoniae) was above 32 µg/mL; against M. catarrhalis (Moraxella catarrhalis), 0.25 µg/mL (≈ 0.341 µM); against pneumococci (setting [3]), above 64 µg/mL; against N. meningitidis (62 N. meningitidis isolates), 0.25 µg/mL (≈ 0.341 µM). In addition, the MIC50 was above 64 µg/mL against pneumococci (setting [3]) and 0.12 µg/mL (≈ 0.164 µM) with N. meningitidis (62 N. meningitidis isolates). This compound returned an MIC against N. meningitidis (62 N. meningitidis isolates) of 0.03 to 0.5 µg/mL (≈ 0.0409 to 0.681 µM).

For `C[C@H]1COc2c(N3CCN(C)CC3)c(F)cc3c(=O)c(C(=O)O)cn1c23` [Levo], in the test with pneumococci, the MIC50 was determined as 1 µg/mL (≈ 2.77 µM), the “MIC Range” value is 0.06 to 32 µg/mL and the MIC range lay within 1 to 32 µg/mL. Moreover, in the test on group A streptococci, the MIC50 is 0.5 µg/mL (≈ 1.38 µM); the MIC90 is 0.5 µg/mL and 1 µg/mL; the “MIC Range” value is 0.5 to 1 µg/mL and 0.5 to 2 µg/mL.

For the compound `C[C@H]1COc2c(N3CCN(C)CC3)c(F)cc3c(=O)c(C(=O)O)cn1c23` [Levofloxacin, levofloxacin], the “MIC Range” value is 0.125 to 1 µg/mL in the test on M. pneumoniae; 0.5 to 2 µg/mL against U. urealyticum; “≦0.008-0.25 μg/mL” against M. fermentans; 0.125 to 0.5 µg/mL in the test on M. hominis (M. hominis (13 isolates)); 0.125 to 2 µg/mL in the test on U. parvum; 0.5 to 1 µg/mL and 0.5 µg/mL with group A streptococci. Moreover, the “MIC Range” value with M. genitalium lay in the range of 0.125 to 1 µg/mL. The MIC50 in the test on M. pneumoniae was found to be 0.5 µg/mL (≈ 1.38 µM); against U. urealyticum (Ureaplasma urealyticum), 0.5 µg/mL (≈ 1.38 µM); in the test with M. fermentans it was 0.031 µg/mL (≈ 0.0858 µM); in the test with M. hominis (Metamycoplasma hominis, M. hominis (13 isolates), read-out: MIC50), 0.25 µg/mL (≈ 0.692 µM); in the test on U. parvum, 0.5 µg/mL (≈ 1.38 µM); against pneumococci (setting [3]), 1 µg/mL (≈ 2.77 µM). Moreover, the values for the MIC50 with group A streptococci (Streptococcus pyogenes), in the test on N. meningitidis (62 N. meningitidis isolates) and against streptococci were 0.5 µg/mL (≈ 1.38 µM), at most 0.008 µg/mL and 1 µg/mL (≈ 2.77 µM), respectively. Moreover, the MIC90 amounted to 0.5 µg/mL (≈ 1.38 µM) in the test with M. pneumoniae; 1 µg/mL (≈ 2.77 µM) against U. urealyticum (Ureaplasma urealyticum); 0.125 µg/mL (≈ 0.346 µM) in the test with M. fermentans; 0.5 µg/mL (≈ 1.38 µM) in the test on M. hominis (Metamycoplasma hominis, M. hominis (13 isolates), read-out: MIC90); 2 µg/mL (≈ 5.53 µM) in the test on U. parvum; 2 µg/mL (≈ 5.53 µM) in the test on pneumococci (setting [3]). For the same compound, the MIC90 against group A streptococci was 0.5 µg/mL (≈ 1.38 µM); with group A streptococci (Streptococcus pyogenes), 1 µg/mL (≈ 2.77 µM); with N. meningitidis (62 N. meningitidis isolates), at most 0.008 µg/mL; in the test with streptococci, 1 µg/mL (≈ 2.77 µM). In addition, the MIC with pneumococci (Streptococcus pneumoniae, read-out: MIC range, pneumococci, L4 mutations (27)) is 0.5 to 16 µg/mL (≈ 1.38 to 44.3 µM); in the test on group A streptococci (Streptococcus pyogenes, read-out: MIC Range), 0.5 to 2 µg/mL (≈ 1.38 to 5.53 µM); with N. meningitidis (62 N. meningitidis isolates) it was 0.008 to 0.015 µg/mL (≈ 0.0221 to 0.0415 µM). In addition, the “% Res.” value in the test with N. meningitidis came out at 0.0%. Moreover, the “% Susc.” value with N. meningitidis is 100.0%. Moreover, in the test on streptococci, the “MIC 90%” value came to 2 µg/mL (≈ 5.53 µM).

Regarding `CN(C)c1ccc(O)c2c1C[C@H]1C[C@H]3[C@H](N(C)C)C(O)=C(C(N)=O)C(=O)[C@@]3(O)C(O)=C1C2=O` [Minocycline], the “% Susc.” value in the test on N. meningitidis stood at 100.0%. Further, in the test with N. meningitidis (62 N. meningitidis isolates), the MIC is 0.008 to 0.25 µg/mL (≈ 0.0175 to 0.546 µM), the MIC50 is 0.12 µg/mL (≈ 0.262 µM) and the MIC90 amounted to 0.12 µg/mL (≈ 0.262 µM).

As to `COc1c(N2C[C@@H]3CCCN[C@@H]3C2)c(F)cc2c(=O)c(C(=O)O)cn(C3CC3)c12` [Moxi], in the test on pneumococci, the MIC50 was 0.25 µg/mL (≈ 0.623 µM), the “MIC Range” value is 0.125 to 4 µg/mL and the MIC range was 0.125 to 8 µg/mL. Besides, in the test on group A streptococci, the MIC50 was 0.25 µg/mL (≈ 0.623 µM); the MIC90 was found to be 0.25 µg/mL (≈ 0.623 µM); the “MIC Range” value is 0.125 to 0.25 µg/mL and 0.125 to 0.5 µg/mL.

On to `CC1(C)S[C@@H]2[C@H](NC(=O)Cc3ccccc3)C(=O)N2[C@H]1C(=O)O` [Pen G], for which, in the test on pneumococci, the MIC50 turned out to be 1 µg/mL (≈ 2.99 µM); the MIC90 was 2 µg/mL and 4 µg/mL; the MIC range lay within 0.015 to 8 µg/mL. Besides, in the test with group A streptococci, the MIC50 turned out to be 0.015 µg/mL (≈ 0.0449 µM); the MIC90 was 0.015 µg/mL and 0.03 µg/mL; the “MIC Range” value was <0.008 to 0.125 µg/mL and 0.008 to 0.015 µg/mL and <0.008 to 0.015 µg/mL and 0.015 µg/mL.

With `CC1(C)S[C@@H]2[C@H](NC(=O)Cc3ccccc3)C(=O)N2[C@H]1C(=O)O` [Penicillin G], in the test with pneumococci (pneumococci, L4 mutations (27)), the MIC50 turned out to be 4 µg/mL (≈ 12 µM) and the MIC90 came out at 16 µg/mL (≈ 47.8 µM). In the test with group A streptococci, the MIC50 came to 0.015 µg/mL (≈ 0.0449 µM); the MIC90 is 0.015 µg/mL and 0.03 µg/mL.

As for Amoxicillin Clavulanate, in the test with pneumococci (pneumococci, L4 mutations (27)), the MIC50 came out at 4 µg/mL and the MIC90 stood at 8 µg/mL.

As to amoxicillin/clavulanate, the nonsusceptibility with S. pneumoniae [1] is 88.9%. For the same compound, in the test on pneumococci, the “MIC Range” value lay within 0.015 to 16 µg/mL. In the test with pneumococci (pneumococci, L4 mutations (27)), this compound registered an MIC50 of 4 µg/mL, an MIC90 of 8 µg/mL and an MIC range of 0.125 to 8 µg/mL. Moreover, in the test on group A streptococci, the MIC50 is 0.03 µg/mL and <0.015 µg/mL and 0.015 µg/mL; the MIC90 was 0.03 µg/mL and 0.06 µg/mL; the “MIC Range” value is 0.015 to 0.03 µg/mL and 0.03 µg/mL.

Turning to quinupristin/dalfopristin [Q/D], in the test on S. pneumoniae [1], the “MIC 90%” value was 1 µg/mL and the susceptible was found to be 100.0%. For the same compound, the “MIC 90%” value against M. catarrhalis is 0.5 µg/mL. In the test on streptococci, the “MIC 50%” value was determined as 0.5 µg/mL; the “MIC 90%” value is 0.5 µg/mL and 1 µg/mL.

Compound trimethoprim/sulfamethoxazole [TMP/SMX] gave a nonsusceptibility with S. pneumoniae [1] of 100.0%. Also, in the test on N. meningitidis (62 N. meningitidis isolates), the “MIC 50%” value stood at 0.5 µg/mL, the “MIC 90%” value turned out to be 2 µg/mL and the “MIC Range” value is reported as “≦0.06-4 μg/ml”. In the test with N. meningitidis, the “% Res.” value turned out to be 59.7% and the “% Susc.” value is 37.1%.

Values taken from patent publication US9901592B2 (priority 2008, dated 2018).
